# Molecular target: FIH (Homo sapiens, UniProt Q9NWT6)
# Assay: Intact protein mass analysis of FIH treated with compound
# Assay type: binding
# Conditions: FIH 5 μM, compound 50 μM
# Procedure: 3 (A) Intact protein mass analysis of FIH (5 μM) and FIH (5 μM) treated with NBA-ZG-2291 (50 μM) without irradiation. (B) Crystal structure view of FIH in complex with NBA-ZG-2291 without irradiation. (C) Superimposition of the crystal structure FIH in complex with NBA-ZG-2291 (green) (PDB ID: 9I4H) and that in complex with ZG-2291 (pink) (PDB ID: 8II0 ). (D) Intact protein mass analysis of FIH (5 μM) and FIH (5 μM) treated with NBA-ZG-2291 (50 μM) followed by 30 min of irradiation (365 nm, 16 W). (E) Predicted covalent binding mode of NBA-ZG-2291 with FIH.
# Subsequently, we verified the covalent reaction of NBA-ZG-2291 and FIH with irradiation in solution using, intact protein mass analyzes.
# 3.4 Intact protein mass spectrometry
# Purified FIH (5 μM final) was incubated with Lys-1 at 50 μM in 50 mM Tris pH 7.5, 50 μM MnCl2 in a total volume of 100 μL.
# All experiments were incubated at 25 ℃ for 1 h, then with or without irradiation at 365 nm for 30 min. […]
# The process of customizing non-standard residues (NBA-ZG-2291 modified Lys106) in the amber14sb force field involved the following steps: First, the molecular structure of NBA-ZG-2291 was obtained and its topology was generated. […] The molecular charges were then calculated using the RESP method, and the topology file was updated with these charge values. […]
# Chain of FIH (Q9NWT6 whole entry): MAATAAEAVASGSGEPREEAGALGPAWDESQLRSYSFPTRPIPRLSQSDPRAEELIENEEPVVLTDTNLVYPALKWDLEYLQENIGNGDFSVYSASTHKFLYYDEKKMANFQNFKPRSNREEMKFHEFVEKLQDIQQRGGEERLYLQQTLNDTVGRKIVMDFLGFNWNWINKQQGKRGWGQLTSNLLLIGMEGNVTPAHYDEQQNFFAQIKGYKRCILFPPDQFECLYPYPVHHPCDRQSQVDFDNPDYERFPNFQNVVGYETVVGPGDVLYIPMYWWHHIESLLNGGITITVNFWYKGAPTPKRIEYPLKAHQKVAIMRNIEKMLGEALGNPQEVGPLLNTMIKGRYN
compound,measurement,setting,value
O=C(O)CNC(=O)c1ncc(-c2cc(-c3ccc(CO)c([N+](=O)[O-])c3)no2)cc1O [NBA-ZG-2291],Covalent adduct with FIH by intact protein MS,"30 min light activation (365 nm, 16 W)",a new peak with the anticipated mass shift corresponding to covalent reaction was detected
same,Covalent adduct with FIH by intact protein MS,absence of irradiation,failed to detect the covalent adducts

# — publication PMC12123601, “Light-Induced, Lysine-Targeting Irreversible Covalent Inhibition of the Human Oxygen Sensing Hydroxylase Factor Inhibiting HIF (FIH)” (Journal of the American Chemical Society, 2025)
